Tests used:
HDAC = HDAC expression (RTqPCR) and histone acetylation (Western blot) in cTreg; assay type: cell-based, mice; settings: 0.1 mM, 24 hours
Description: Treg were isolated from the colon, small intestine, mesenteric lymph node or spleen of C57BL/6 Foxp3^YFP-Cre mice and FACS-sorted based on expression of YFP. RNA samples were prepared using the RNeasy Mini Kit (Qiagen) and cDNA was synthesized using the Bio-Rad iScript cDNA Synthesis Kit. Real-time (RT)-qPCR was performed using the KAPA SYBR FAST Universal qPCR Kit (KAPA Biosystems) and a Stratagene MX3005P (Agilent Technologies). The following primer sequences were used:
Colonic lamina propria Treg were isolated and whole cell lysates generated using RIPA buffer in the presence of protease inhibitors. Protein lysates were resolved using SDS-PAGE and transferred to PVDF membrane using a Bio-Rad wet transfer apparatus. Blots were probed with antibodies directed against acetyl-histone H3 (K9) and histone H3 (All from Cell Signaling Technologies). After incubation with the appropriate HRP-conjugated antibody, ECL was used for developing. Densitometry analysis of Western blots was performed using Image-J software available on the world wide web at rsbweb.nih.gov/ij/.

Ffar2 = biological target: T1, Ffar2 (Homo sapiens, UniProt O15552); settings: among SCFA; Le Poul et al. 2003; cited from earlier work
T1 sequence (O15552 1-330): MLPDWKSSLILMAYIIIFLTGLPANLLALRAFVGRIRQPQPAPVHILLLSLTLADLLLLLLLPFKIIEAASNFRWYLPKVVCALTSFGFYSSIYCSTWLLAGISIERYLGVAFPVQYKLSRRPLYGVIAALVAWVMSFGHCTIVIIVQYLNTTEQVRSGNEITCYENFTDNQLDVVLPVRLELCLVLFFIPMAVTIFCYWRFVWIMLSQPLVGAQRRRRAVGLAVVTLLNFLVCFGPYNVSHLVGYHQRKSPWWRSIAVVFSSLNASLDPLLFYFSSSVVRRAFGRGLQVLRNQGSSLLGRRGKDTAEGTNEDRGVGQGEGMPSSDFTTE

[1] = Stability of SCFA mix in mouse water bottle over time; assay type: physicochemical
Description: Mice were treated for 21 days with either sodium acetate (150 mM), sodium propionate (150 mM), sodium butyrate (100 mM) or a SCFA mix (67.5 mM acetate, 40 mM Butyrate, 25.9 mM Propionate) in the drinking water. In in vivo drinking water treatment experiments, control mice received pH and sodium-matched water. At the conclusion of the experiment mice were removed from isolators and processed immediately.

colonic Treg (cTreg) = assay: Antibiotic (vancomycin) treatment of SPF mice with or without SCFA; assay type: in vivo; settings: Ffar2-/- vs Ffar2+/+ mice
Description: Science 341: 1645 (2013). […] The crude cell suspension was loaded onto a 40%/90% Percoll (GE Healthcare) gradient and centrifuged at 720 x g for 25 min at room temperature with acceleration and brake turned off. LP lymphocytes were collected from the 40%/90% interface. Intracellular staining of the transcription factors Foxp3, Helios and T-bet was performed using the Foxp3 Fix/Perm Buffer Set (Biolegend). For detection of intracellular cytokines, cells were first stimulated for 4 h with 50 ng/ml PMA and 1 μg/ml ionomycin in the presence of Brefeldin A (All obtained from Sigma), followed by staining for surface markers. Cells were then fixed and permeabilized using the Foxp3 Fix/Perm Buffer Set (Biolegend) and stained for intracellular cytokines. The following antibodies were used: […] All antibodies were obtained from Biolegend unless otherwise noted. Flow cytometry was performed using LSRII and data were analyzed with FlowJo software (TreeStar, Inc.). Cell sorting was performed using a […] at the Dana-Farber Cancer Institute Flow Cytometry Core.

## CCC(=O)O [Propionate, propionic acid]
HDAC; Ffar2+/+
  cTreg expression of HDAC6 and HDAC9: reduced
  cTreg expression of class I HDAC1 and HDAC2 or class IIa HDAC7: did not reduce
HDAC; cTreg, required Ffar2
  histone acetylation (H3K9): enhanced
Ffar2
  affinity for Ffar2: highest affinity
[1]; Day 0
  SCFA mix in mouse water bottle over time, Input (Day 0): 200 mM
[1]; Day 1, input 200 mM
  SCFA mix in mouse water bottle over time, Day 1: 200 mM
[1]; Day 4, input 200 mM
  SCFA mix in mouse water bottle over time, Day 4: 199.6 mM
[1]; Day 7, input 200 mM
  SCFA mix in mouse water bottle over time, Day 7: 201.24 mM
[1]; Day 10, input 200 mM
  SCFA mix in mouse water bottle over time, Day 10: 202.9 mM
[1]; Day 14, input 200 mM
  SCFA mix in mouse water bottle over time, Day 14: 203.2 mM
[1]; Day 90, input 200 mM
  SCFA mix in mouse water bottle over time, Day 90: 41.9 mM
Colonic Treg (cTreg)
  restoration of cTreg populations and numbers in the setting of vancomycin treatment: Ffar2 was necessary
